Literature values in patent US20260263463A1, “FORMULATIONS OF DANICOPAN AND METHODS OF USE THEREOF” (Alexion Pharmaceuticals, Inc., priority 2023, published 2026).

Conditions: doses of up to 1,600 mg; cited from earlier work

CC(=O)c1nn(CC(=O)N2C[C@H](F)C[C@H]2C(=O)Nc2cccc(Br)n2)c2ccc(-c3cnc(C)nc3)cc12 [Danicopan, danicopan]
adverse effects: no adverse effects
